Values quoted from earlier work in patent US20160158308A1 (priority 2013, published 2016).
Read-outs that look alike come from different tables or passages of the source.

Key:
[1] = tested on: Mycobacterium tuberculosis; conditions: NAC at 10 millimolar
[2] = rat liver, CO-60, water control = 0% removal

CC(=O)N[C@@H](CS)C(=O)O [NAC, N-acetyl cysteine]
M. tuberculosis CFU/ml [1]: 8,000 CFU/ml

N[C@@H](CCC(=O)N[C@@H](CS)C(=O)NCC(=O)O)C(=O)O [Plain glutathione, glutathione]
removal of the toxin [2]: 0% | removal of the toxin ([2]; listed as Intravenous glutathione): 64%
